# What was measured:
# [1] = system: KERtr cells (Human skin keratinocyte); assay: Keratinocyte proliferation assay; format: cell-based; details: 72 hr, BrdU incorporation, read-out: Keranocyte Proliferation IC50
# Experimental: 6. The keratinocyte proliferation assay is described in the “Assay” section of the Description, infra.
# The Keratinocyte Proliferation Assay
# This Assay is indicative for the treatment of psoriasis. An acceptable test result is IC50 value of less than or equal to 300 nM. Preferred assay results are IC50 values of less than 100 nM.
# KERtr cells (Human skin keratinocyte are transformed with a retrovirus vector, obtained from ATCC, then are plated in 96-well flat-bottomed plates (3000 cells/well) in 100 μl keratinocyte serum free medium supplemented with bovine pituitary extract in the absence of EGF (Life Technologies, Rockville, Md.) and are incubated at 37° C. for two days. The cells are treated with various concentrations of VDR ligands (ten-fold serial dilution from 10,000 nM to 0.1 nM in triplicate), dissolved in 100 μl keratinocyte serum free medium supplemented with bovine pituitary extract in the absence of EGF and are incubated at 37° C. for 72 hr. BrdU (5-bromo-2′-deoxyuridine) incorporation is analyzed as a measure of DNA replication (Cell proliferation ELISA kit, Roche Diagnostics, Indianapolis, Ind.) and absorbance is measured at […]. Potency values (IC50) values were determined as the concentration (nM) of compound that elicited a half-maximal response.
# [2] = system: IL-10 production in PBMCs; assay: IL-10 induction assay; format: cell-based; details: PBMC; TPA/PHA stimulated human PBMCs, IL-10 in supernatant by immunoassay
# Text: 7. The IL-10 induction assay is described in the “Assay” section of the Description, infra.
# The IL-10 Induction Assay
# This is an in vitro efficacy assay for psoriasis, abscess and adhesion. Psoriasis involves both keratinocytes and immune cells. IL-10 is a unique cytokine because it is anti-inflammatory and immunosuppressive. This assay tells us whether a VDRM is able to function as an agonist in PBMCs (primary blood mononuclear cells) or not. A lower EC50 value is desirable in this assay since a compound with a lower EC50 value will be a better agonist in PBMCs. An acceptable test result is an EC50 value of less than 200 nM. Preferred assay results are EC50 values of less than 100 nM.
# Isolation of Peripheral Blood Mononuclear Cells (PBMCs):
# Collect 50 ml of human blood and dilute with media, RPMI-1640. Add diluted blood to sterile tubes with ficol. Centrifuge the tubes. Discard the top layer and collect the cells from middle layer. Divide all cells into four tubes and add media. Centrifuge. Aspirate off media and resuspend the cells. Collect all cells. Centrifuge at 1200 rpm for 10 m. Resuspend the cells in RPMI-1640 with 2% FBS and then count cells.
# Stimulation of PBMC: Prepare TPA in DMSO. Dissolve PHA in water. Plate TPA/PHA treated PBMCs in well plates. Incubate the cells.
# Treatment: Prepare all compound dilutions in plain RPMI-1640 media. Add diluted compound and incubate. Sample Collection and assay: Remove all the cells by centrifugation and assay the supernatant for IL-10 by immunoassay using anti-human IL-10 antibody coated beads, as described by the manufacturer (Linco Research Inc., St. Charles, Mo.).
smiles,measurement,setting,value
"CCC(CC)(c1ccc(OCC(O)C(C)(C)C)c(C)c1)c1ccc2cc(C(=O)O)ccc2c1 (racemic) [Ex. 2, 6-{1-Ethyl-1-[4-(2-hydroxy-3,3-dimethyl-butoxy)-3-methyl-phenyl]-propyl}-naphthalene-2-carboxylic acid]",IC50,[1],47 nM
same,IC50,[2],49 nM
